Measurements: patent US20130261066A1, “TREATMENT OF INFLAMMATORY BOWEL DISEASES USING A TRIPEPTIDE” (THE RESEARCH FOUNDATION OF STATE UNIVERSITY OF NEW YORK, priority 2010, published 2013)

Test system: NF-kB
Test: Inhibition of NF-kB by D-amino-acid and cyclized peptides
Source text: The following acetylated peptides, composed of D amino acids, were synthesized and tested for inhibition of NF-kB: 1) Ac-dGln-dALa-dTrp (SEQ ID NO:9); and 2) Ac-dPhe-dLeu-dLys-dGln-dALa-dTrp (SEQ ID NO:10). […] The following acetylated peptide, cyclized through its N- and C-terminals, was synthesized and tested for inhibition of NF-kB: Ac-Phe-Leu-Lys-Gln-Ala-Trp (SEQ ID NO:6).

Substance	inhibition of NF-kB
Ac-Phe-Leu-Lys-Gln-Ala-Trp (Ac-cyclo(FLKQAW))	effective inhibition of NF-kB
Ac-dGln-dALa-dTrp	effective inhibition of NF-kB
Ac-dPhe-dLeu-dLys-dGln-dALa-dTrp	effective inhibition of NF-kB
